Experimental data from US11708359B2, “Monoacylglycerol lipase modulators” (Janssen Pharmaceutica NV, priority 2020, dated 2023).

These compounds were tested against human MGL from HeLa cells (Homo sapiens (Human), UniProt Q99685) (assay: MGL in vitro activity assay ([glycerol-1,3-3H]-oleoyl glycerol cleavage, activated carbon filter)). Settings: 300 nM [Glycerol-1,3-3H]-oleoyl glycerol, endogenously expressed MGL from HeLa cells, one hour incubation; read-out: MGL IC50.
Format: biochemical
Procedure, shortened: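 Endogenous MGL in HeLa cells or homogenates was incubated with compound and 300 nM [glycerol-1,3-3H]-oleoyl glycerol for one hour. Reactions were filtered through activated carbon, and tritiated glycerol in the flow-through was counted as a measure of activity.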

human MGL from HeLa cells, sequence (Q99685 whole entry): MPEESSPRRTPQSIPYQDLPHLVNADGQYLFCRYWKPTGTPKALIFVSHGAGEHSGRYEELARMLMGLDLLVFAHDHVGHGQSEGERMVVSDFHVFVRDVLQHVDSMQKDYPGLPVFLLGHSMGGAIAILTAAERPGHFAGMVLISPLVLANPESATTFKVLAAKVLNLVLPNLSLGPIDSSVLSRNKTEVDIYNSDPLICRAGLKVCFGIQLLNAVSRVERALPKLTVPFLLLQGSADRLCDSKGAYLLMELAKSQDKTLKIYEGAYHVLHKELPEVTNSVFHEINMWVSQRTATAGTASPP

| SMILES | IC50 [nM] |
| --- | --- |
| O=C1N[C@]2(CO1)C[C@H](C(=O)N1CC[C@@]3(c4ccccc4)C[C@H]3C1)C2 [Example 40, (2s,4S)-2-((1R,6S)-6-Phenyl-3-azabicyclo[4.1.0]heptane-3-carbonyl)-7-oxa-5-azaspiro[3.4]octan-6-one] | 136 |
| O=C1N[C@]2(CO1)C[C@H](C(=O)N1CC[C@]3(c4ccccc4)C[C@@H]3C1)C2 [Example 41, (2s,4R)-2-((1S,6R)-6-Phenyl-3-azabicyclo[4.1.0]heptane-3-carbonyl)-7-oxa-5-azaspiro[3.4]octan-6-one] | 9.6 |
| CC(C)(C)c1cccc([C@H]2[C@@H]3CN(C(=O)[C@H]4C[C@]5(CCC(=O)N5)C4)C[C@@H]32)c1 [Example 79, (2r,4S)-2-((1R,5S,6S)-6-(3-(tert-Butyl)phenyl)-3-azabicyclo[3.1.0]hexane-3-carbonyl)-5-azaspiro[3.4]octan-6-one] | 7.2 |
| O=C1N[C@]2(CO1)C[C@H](C(=O)N1C[C@@H]3[C@H](C1)[C@H]3c1ccc(C(F)(F)F)cc1)C2 [Example 80, (2s,4S)-2-((1R,5S,6S)-6-(4-(Trifluoromethyl)phenyl)-3-azabicyclo[3.1.0]hexane-3-carbonyl)-7-oxa-5-azaspiro[3.4]octan-6-one] | 33 |
| O=C1CC[C@]2(C[C@H](C(=O)N3C[C@@H]4[C@H](C3)[C@H]4c3ccc(C(F)(F)F)cc3)C2)N1 [Example 81, (2r,4S)-2-((1R,5S,6S)-6-(4-(Trifluoromethyl)phenyl)-3-azabicyclo[3.1.0]hexane-3-carbonyl)-5-azaspiro[3.4]octan-6-one] | 206 |
| CC(C)(C)c1ccc([C@H]2[C@@H]3CN(C(=O)[C@H]4C[C@]5(CCC(=O)N5)C4)C[C@@H]32)cc1 [Example 83, (2r,4S)-2-((1R,5S,6S)-6-(4-(tert-Butyl)phenyl)-3-azabicyclo[3.1.0]hexane-3-carbonyl)-5-azaspiro[3.4]octan-6-one] | 2.9 |
| CC(C)c1cccc([C@H]2[C@@H]3CN(C(=O)[C@H]4C[C@]5(COC(=O)N5)C4)C[C@@H]32)c1 [Example 84, (2s,4S)-2-((1R,5S,6S)-6-(3-Isopropylphenyl)-3-azabicyclo[3.1.0]hexane-3-carbonyl)-7-oxa-5-azaspiro[3.4]octan-6-one] | 5.5 |
| Cc1ccc([C@H]2[C@@H]3CN(C(=O)[C@H]4C[C@]5(COC(=O)N5)C4)C[C@@H]32)cc1C(F)(F)F [Example 85, (2s,4S)-2-((1R,5S,6S)-6-(4-Methyl-3-(trifluoromethyl)phenyl)-3-azabicyclo[3.1.0]hexane-3-carbonyl)-7-oxa-5-azaspiro[3.4]octan-6-one] | 4.4 |
| CCc1ccc([C@H]2[C@@H]3CN(C(=O)[C@H]4C[C@]5(COC(=O)N5)C4)C[C@@H]32)cc1 [Example 86, (2s,4S)-2-((1R,5S,6S)-6-(4-Ethylphenyl)-3-azabicyclo[3.1.0]hexane-3-carbonyl)-7-oxa-5-azaspiro[3.4]octan-6-one] | 25 |
| CCc1ccc([C@H]2[C@@H]3CN(C(=O)[C@H]4C[C@]5(CCC(=O)N5)C4)C[C@@H]32)cc1 [Example 87, (2r,4S)-2-((1R,5S,6S)-6-(4-Ethylphenyl)-3-azabicyclo[3.1.0]hexane-3-carbonyl)-5-azaspiro[3.4]octan-6-one] | 131 |
| Cc1ccc([C@H]2[C@@H]3CN(C(=O)[C@H]4C[C@]5(COC(=O)N5)C4)C[C@@H]32)cc1C [Example 88, (2s,4S)-2-((1R,5S,6S)-6-(3,4-Dimethylphenyl)-3-azabicyclo[3.1.0]hexane-3-carbonyl)-7-oxa-5-azaspiro[3.4]octan-6-one] | 29 |
| Cc1ccc([C@H]2[C@@H]3CN(C(=O)[C@H]4C[C@]5(CCC(=O)N5)C4)C[C@@H]32)cc1C [Example 89, (2r,4S)-2-((1R,5S,6S)-6-(3,4-Dimethylphenyl)-3-azabicyclo[3.1.0]hexane-3-carbonyl)-5-azaspiro[3.4]octan-6-one] | 178 |
